Some test systems named below: CAKI-1 renal; HCC-2998 colon; UACC-62 melanoma; SW-620 colon; A549 NSCLC; NCI-H522 lung; K-562 leukemia; DU-145 prostate; KM12 colon; RPMI-8226 leukemia.
Holding throughout (test): NCI-60 cell line screen, 48 h

“And” between values parts separate entries of the source, which are not always exact repeats. Identical values can stand only once.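 Where inhibition never reached the appropriate level, the endpoint shown equals the highest concentration tested. Otherwise, values were interpolated linearly from a five-concentration, 48-hour dose response in 96-well plates. GI50 = concentration required for 50% inhibition of growth. TGI is the concentration that stops growth completely.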

With `C[C@]12CC[C@H]3[C@@H](CCC4=CC(=O)CC[C@@H]43)[C@@H]1CC[C@@H]2OC(=O)N(CCCl)N=O`, the GI50 was 0.51 µM in the experiment with CAKI-1 renal; 2.2 µM in the experiment with HCC-2998 colon; 0.413 µM in the experiment on UACC-62 melanoma; 1.75 µM in the experiment with SW-620 colon; 0.393 µM with A549 NSCLC; 5.79 µM in the experiment with NCI-H522 lung. Further, the GI50 was 2.9 µM in the experiment on K-562 leukemia, 0.433 µM in the experiment with DU-145 prostate, 2.95 µM with KM12 colon and 0.983 µM with RPMI-8226 leukemia. In addition, the TGI is 27.6 µM in the experiment with CAKI-1 renal; 12.4 µM in the experiment on HCC-2998 colon; 18.1 µM in the experiment with UACC-62 melanoma; 26.7 µM in the experiment on SW-620 colon; 14.8 µM with A549 NSCLC; 29 µM in the experiment on NCI-H522 lung. For the same compound, the TGI in the experiment with K-562 leukemia worked out at 56 µM; in the experiment with DU-145 prostate, 4.41 µM; in the experiment on KM12 colon, 19.2 µM.

Consider `CC1=CC(=O)c2c(O)cccc2C1=O`, for which the TGI in the experiment with CAKI-1 renal was 3.24 µM; with HCC-2998 colon, 4.12 µM; with UACC-62 melanoma, 3.4 µM; with SW-620 colon it was 4.15 µM; in the experiment on A549 NSCLC, 34.6 µM; in the experiment on NCI-H522 lung, 3.01 µM. The TGI with K-562 leukemia was found to be 2.52 µM; with DU-145 prostate it was 3.02 µM; in the experiment on KM12 colon it was 19.5 µM; in the experiment with RPMI-8226 leukemia it was 1.83 µM.

Turning to `c1ccc2[nH]c(-c3ccc(N4CCN(c5ccc(-c6nc7ccccc7[nH]6)cc5)CC4)cc3)nc2c1`, the GI50 in the experiment with CAKI-1 renal was more than 100 µM; with HCC-2998 colon, more than 100 µM; with UACC-62 melanoma, 83 µM; in the experiment with SW-620 colon it was 58 µM; with A549 NSCLC it was more than 100 µM; in the experiment with NCI-H522 lung, more than 100 µM. Besides, the GI50 in the experiment with K-562 leukemia is 38.4 µM; with DU-145 prostate it was 37.5 µM; in the experiment on KM12 colon, 71.1 µM; in the experiment on RPMI-8226 leukemia it was 40 µM. Further, the TGI in the experiment with CAKI-1 renal, with HCC-2998 colon, with UACC-62 melanoma, in the experiment with SW-620 colon, in the experiment on A549 NSCLC and with NCI-H522 lung was more than 100 µM in each case. For the same compound, the TGI with K-562 leukemia, in the experiment on DU-145 prostate, in the experiment with KM12 colon and in the experiment with RPMI-8226 leukemia was more than 100 µM throughout.

For the compound `Fc1ccc2[nH]cc(Cc3c[nH]c4ccc(F)cc34)c2c1`, the GI50 in the experiment on CAKI-1 renal is 12.1 µM; with HCC-2998 colon, 13.3 µM; in the experiment on UACC-62 melanoma it was 12 µM; in the experiment with SW-620 colon, 23.7 µM; in the experiment on A549 NSCLC, 17.3 µM; with NCI-H522 lung, 14.3 µM. Besides, the GI50 in the experiment with K-562 leukemia is 32.4 µM; with DU-145 prostate, 27.8 µM; with KM12 colon, 12 µM; in the experiment with RPMI-8226 leukemia, 21 µM. Further, the TGI in the experiment with CAKI-1 renal was 34.3 µM; with HCC-2998 colon, 30.3 µM; with UACC-62 melanoma, 28.3 µM; in the experiment on SW-620 colon, 58.8 µM; in the experiment with A549 NSCLC it was 50.9 µM; with NCI-H522 lung, 36.3 µM. In addition, the TGI in the experiment with K-562 leukemia was more than 100 µM; with DU-145 prostate, 85.7 µM; in the experiment with KM12 colon, 30.2 µM; in the experiment with RPMI-8226 leukemia it was 62.2 µM.

As for `C=C(C)[C@@H]1CC[C@]2(C(=O)NCCCN)CC[C@]3(C)[C@H](CC[C@@H]4[C@@]5(C)CC[C@H](O)C(C)(C)[C@@H]5CC[C@]43C)[C@@H]12`, the GI50 in the experiment with CAKI-1 renal is 21.9 µM; in the experiment with HCC-2998 colon, 21.4 µM; in the experiment on UACC-62 melanoma, 27.4 µM; with SW-620 colon, 22.5 µM; with A549 NSCLC, 19.6 µM; in the experiment on NCI-H522 lung, 21 µM. Also, the GI50 in the experiment on K-562 leukemia is 9.84 µM; in the experiment on DU-145 prostate, 17.5 µM; in the experiment with KM12 colon, 17.3 µM; in the experiment with RPMI-8226 leukemia, 17.2 µM. Also, the TGI in the experiment on CAKI-1 renal is more than 100 µM; in the experiment on HCC-2998 colon, 77.1 µM; in the experiment on UACC-62 melanoma, 93.2 µM; in the experiment with SW-620 colon, more than 100 µM; with A549 NSCLC it was 66.5 µM; in the experiment on NCI-H522 lung it was 68.9 µM. Further, the TGI with K-562 leukemia was 31.3 µM; in the experiment with DU-145 prostate it was 37.1 µM; in the experiment on KM12 colon it was 52.9 µM; with RPMI-8226 leukemia, 92.6 µM.

For the compound `C=C(C)[C@@H]1CC=C(CO)CC1`, the TGI in the experiment with CAKI-1 renal is more than 10 µM; with HCC-2998 colon it was > 10 µM and 1460 µM; in the experiment on UACC-62 melanoma it was > 10 µM and 964 µM; in the experiment with SW-620 colon, 1340 µM; with A549 NSCLC, > 10 µM and 755 µM; in the experiment with NCI-H522 lung it was > 10 µM and 1150 µM. Further, the TGI with K-562 leukemia was > 10 µM and 1140 µM; in the experiment on DU-145 prostate it was more than 10 µM; with KM12 colon it was > 10 µM and 1050 µM; with RPMI-8226 leukemia, more than 10 µM. For the same compound, the GI50 in the experiment with HCC-2998 colon, in the experiment with UACC-62 melanoma, in the experiment with A549 NSCLC, with NCI-H522 lung, in the experiment with K-562 leukemia and with KM12 colon was more than 10 µM throughout.

For `O=C(CCl)c1ccc([N+](=O)[O-])o1`, the GI50 is 1.73 µM in the experiment on CAKI-1 renal; 5.36 µM in the experiment with HCC-2998 colon; 2.13 µM in the experiment on UACC-62 melanoma; 0.886 µM in the experiment on SW-620 colon; 21.1 µM in the experiment on A549 NSCLC; 2.81 µM in the experiment on NCI-H522 lung. Also, the GI50 with K-562 leukemia was 1.18 µM; in the experiment with DU-145 prostate, 2.21 µM; in the experiment on KM12 colon, 2.02 µM; in the experiment on RPMI-8226 leukemia, 0.873 µM. In addition, the TGI in the experiment with CAKI-1 renal was 3.24 µM; with HCC-2998 colon, 11.2 µM; in the experiment with UACC-62 melanoma, 5.62 µM; in the experiment with SW-620 colon, 2.54 µM; in the experiment with A549 NSCLC it was 54.4 µM; with NCI-H522 lung it was more than 21.1 µM. Also, the TGI was more than 19.8 µM in the experiment with K-562 leukemia, 5.01 µM with DU-145 prostate and 4.6 µM in the experiment with KM12 colon.

`N#CSc1ncnc2nc[nH]c12`: the GI50 with CAKI-1 renal was 2.01 µM; with HCC-2998 colon it was 3.9 µM; in the experiment on UACC-62 melanoma, 4.1 µM; in the experiment on SW-620 colon, 7.85 µM; with A549 NSCLC it was 50.2 µM; in the experiment on NCI-H522 lung it was 3.32 µM. For the same compound, the GI50 was 1.24 µM in the experiment on K-562 leukemia, 0.548 µM with DU-145 prostate, 3.26 µM in the experiment on KM12 colon and 4.13 µM in the experiment on RPMI-8226 leukemia. The TGI with CAKI-1 renal was 30.1 µM; in the experiment on HCC-2998 colon, more than 100 µM; in the experiment with UACC-62 melanoma, more than 100 µM; in the experiment on SW-620 colon, more than 100 µM; in the experiment with A549 NSCLC, more than 100 µM; with NCI-H522 lung it was 25.6 µM. Moreover, the TGI in the experiment on K-562 leukemia was more than 100 µM; in the experiment on DU-145 prostate it was more than 38.7 µM; with KM12 colon it was more than 48.5 µM; in the experiment with RPMI-8226 leukemia it was more than 100 µM.

Source of the values: PubChem BioAssay (NCI).
